One block for each compound: values may come before it.
Tests used:
[1] = Cmax in fasted Wistar rat at 5 mg/kg, po by LC-MS/MS analysis; type: ADME, organism-based; set-up: dose 5 mg/kg, route oral; conditions: in vivo
Histamine H3 receptor [2] = molecular target: T1, Histamine H3 receptor (Homo sapiens, UniProt Q9Y5N1); experiment: Binding affinity to recombinant human H3 receptor
Histamine H3 receptor [3] = molecular target: T1, Histamine H3 receptor; experiment: Antagonist activity at recombinant human H3 receptor expressed on CHO-K1 cells assessed as cAMP level by luciferase gene reporter assay; type: functional, cell-based
hERG (KCNH2) [4] = molecular target: T2, hERG (KCNH2) (Homo sapiens, UniProt Q12809); experiment: Inhibition of human ERG at 10 uM by scintillation counting method
[5] = Metabolic stability in human liver microsomes assessed as compound metabolized after 30 mins by LC-MS/MS analysis; type: ADME; conditions: read-out: Drug metabolism
[6] = Metabolic stability in rat liver microsomes assessed as compound metabolized after 30 mins by LC-MS/MS analysis; type: ADME; conditions: read-out: Drug metabolism
Rattus norvegicus [7] = experiment: AUCt in fasted Wistar rat at 5 mg/kg, po by LC-MS/MS analysis; type: ADME, organism-based; conditions: in vivo
Rattus norvegicus [8] = experiment: Oral bioavailability in fasted Wistar rat at 5 mg/kg by LC-MS/MS analysis; type: ADME, organism-based; conditions: in vivo
Rattus norvegicus [9] = experiment: Half life in fasted Wistar rat at 5 mg/kg, iv by LC-MS/MS analysis; type: ADME, organism-based; conditions: in vivo
Histamine H3 receptor [10] = molecular target: T1, Histamine H3 receptor; experiment: Displacement of [3H]R-alpha-methyl histamine from recombinant human H3 receptor
hERG (KCNH2) [11] = molecular target: T2, hERG (KCNH2); experiment: Inhibition of human ERG at 1 uM by scintillation counting method
Cytochrome P450 3A4 = Cytochrome P450 3A4 (Homo sapiens, UniProt P08684); experiment: Inhibition of human CYP3A4 after 2 mins by LC-MS/MS analysis; type: ADME
Cytochrome P450 2D6 = Cytochrome P450 2D6 (Homo sapiens, UniProt P10635); experiment: Inhibition of human CYP2D6 after 12 mins by LC-MS/MS analysis; type: ADME
[12] = Cmax in fasted Wistar rat at 3 mg/kg, po by LC-MS/MS analysis; type: ADME, organism-based; set-up: dose 3 mg/kg, route oral; conditions: in vivo
Rattus norvegicus [13] = experiment: AUCt in fasted Wistar rat at 3 mg/kg, po by LC-MS/MS analysis; type: ADME, organism-based; conditions: in vivo
Rattus norvegicus [14] = experiment: Oral bioavailability in fasted Wistar rat at 3 mg/kg by LC-MS/MS analysis; type: ADME, organism-based; conditions: in vivo
Rattus norvegicus [15] = experiment: Apparent volume of distribution in fasted Wistar rat at 3 mg/kg, iv by LC-MS/MS analysis; type: ADME, organism-based; conditions: in vivo
[16] = Drug uptake in Wistar rat brain at 3 mg/kg, po after 1 hr by LC-MS/MS analysis; type: ADME, organism-based; conditions: read-out: Drug uptake
[17] = Drug uptake in Wistar rat brain at 10 mg/kg, po after 1 hr by LC-MS/MS analysis; type: ADME, organism-based; conditions: read-out: Drug uptake
[18] = Drug uptake in Wistar rat brain at 30 mg/kg, po after 1 hr by LC-MS/MS analysis; type: ADME, organism-based; conditions: read-out: Drug uptake
[19] = Plasma concentration in Wistar rat at 3 mg/kg, po after 1 hr by LC-MS/MS analysis; type: ADME, organism-based
[20] = Plasma concentration in Wistar rat at 10 mg/kg, po after 1 hr by LC-MS/MS analysis; type: ADME, organism-based
[21] = Plasma concentration in Wistar rat at 30 mg/kg, po after 1 hr by LC-MS/MS analysis; type: ADME, organism-based
[22] = Ratio of drug level in brain to blood in Wistar rat at 10 mg/kg, po by LC-MS/MS analysis
Rattus norvegicus [23] = experiment: In vivo receptor occupancy at histamine H3 receptor in po dosed Wistar rat by LC-MS/MS analysis; type: functional

T2 sequence (Q12809 whole entry): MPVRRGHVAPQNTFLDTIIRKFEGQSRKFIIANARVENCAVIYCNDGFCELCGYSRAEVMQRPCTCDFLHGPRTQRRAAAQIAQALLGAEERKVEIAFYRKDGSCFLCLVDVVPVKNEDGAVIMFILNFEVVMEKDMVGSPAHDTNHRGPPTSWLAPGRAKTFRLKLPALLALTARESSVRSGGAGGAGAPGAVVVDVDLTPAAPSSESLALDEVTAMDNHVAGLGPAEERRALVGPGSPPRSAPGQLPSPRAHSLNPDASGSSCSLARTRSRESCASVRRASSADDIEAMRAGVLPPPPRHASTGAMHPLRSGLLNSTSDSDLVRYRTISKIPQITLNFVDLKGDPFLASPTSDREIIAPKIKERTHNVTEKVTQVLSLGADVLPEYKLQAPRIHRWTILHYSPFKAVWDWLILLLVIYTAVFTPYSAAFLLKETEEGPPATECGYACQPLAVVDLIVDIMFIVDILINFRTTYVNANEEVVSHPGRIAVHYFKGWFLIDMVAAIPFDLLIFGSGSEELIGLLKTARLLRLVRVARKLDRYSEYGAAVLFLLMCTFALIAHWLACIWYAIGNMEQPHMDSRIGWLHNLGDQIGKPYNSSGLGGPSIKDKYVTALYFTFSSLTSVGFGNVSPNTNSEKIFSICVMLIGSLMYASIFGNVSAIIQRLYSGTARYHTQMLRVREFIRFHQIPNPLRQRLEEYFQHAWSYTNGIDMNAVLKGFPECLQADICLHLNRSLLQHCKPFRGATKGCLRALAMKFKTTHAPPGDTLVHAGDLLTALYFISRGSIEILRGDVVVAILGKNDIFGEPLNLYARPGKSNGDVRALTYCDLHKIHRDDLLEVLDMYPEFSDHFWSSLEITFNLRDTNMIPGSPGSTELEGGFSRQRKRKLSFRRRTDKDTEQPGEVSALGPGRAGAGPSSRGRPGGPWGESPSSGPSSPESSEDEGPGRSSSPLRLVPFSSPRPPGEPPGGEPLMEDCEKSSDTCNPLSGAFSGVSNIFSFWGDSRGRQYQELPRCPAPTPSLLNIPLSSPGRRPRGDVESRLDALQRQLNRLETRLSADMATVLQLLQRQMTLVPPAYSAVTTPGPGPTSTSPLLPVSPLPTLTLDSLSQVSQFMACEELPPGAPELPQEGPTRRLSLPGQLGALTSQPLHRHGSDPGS
T1 sequence (Q9Y5N1 whole entry): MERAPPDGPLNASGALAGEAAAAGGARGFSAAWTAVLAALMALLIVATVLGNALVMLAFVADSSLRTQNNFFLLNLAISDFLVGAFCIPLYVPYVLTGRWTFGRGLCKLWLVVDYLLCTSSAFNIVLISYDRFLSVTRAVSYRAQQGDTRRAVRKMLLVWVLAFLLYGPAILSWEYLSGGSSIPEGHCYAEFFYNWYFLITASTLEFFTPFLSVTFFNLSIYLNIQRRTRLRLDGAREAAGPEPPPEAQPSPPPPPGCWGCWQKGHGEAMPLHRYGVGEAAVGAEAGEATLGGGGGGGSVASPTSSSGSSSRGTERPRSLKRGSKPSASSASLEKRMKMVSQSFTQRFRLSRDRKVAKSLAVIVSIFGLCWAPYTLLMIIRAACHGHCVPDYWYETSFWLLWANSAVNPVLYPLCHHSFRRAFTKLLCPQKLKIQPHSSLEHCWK
Chain of Cytochrome P450 3A4 (P08684 whole entry): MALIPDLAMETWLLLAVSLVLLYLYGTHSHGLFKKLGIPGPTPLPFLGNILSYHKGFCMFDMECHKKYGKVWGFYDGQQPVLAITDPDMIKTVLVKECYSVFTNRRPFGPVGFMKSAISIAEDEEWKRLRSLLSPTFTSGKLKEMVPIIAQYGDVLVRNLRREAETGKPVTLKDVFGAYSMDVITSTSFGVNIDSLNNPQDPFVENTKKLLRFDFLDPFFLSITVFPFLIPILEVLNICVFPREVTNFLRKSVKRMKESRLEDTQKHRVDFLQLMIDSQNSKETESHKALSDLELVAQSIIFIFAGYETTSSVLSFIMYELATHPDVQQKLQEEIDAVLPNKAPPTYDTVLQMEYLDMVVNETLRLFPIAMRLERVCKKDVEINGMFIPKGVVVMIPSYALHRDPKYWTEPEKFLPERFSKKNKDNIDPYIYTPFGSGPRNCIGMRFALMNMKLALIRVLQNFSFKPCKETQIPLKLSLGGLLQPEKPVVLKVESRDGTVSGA
Chain of Cytochrome P450 2D6 (P10635 whole entry): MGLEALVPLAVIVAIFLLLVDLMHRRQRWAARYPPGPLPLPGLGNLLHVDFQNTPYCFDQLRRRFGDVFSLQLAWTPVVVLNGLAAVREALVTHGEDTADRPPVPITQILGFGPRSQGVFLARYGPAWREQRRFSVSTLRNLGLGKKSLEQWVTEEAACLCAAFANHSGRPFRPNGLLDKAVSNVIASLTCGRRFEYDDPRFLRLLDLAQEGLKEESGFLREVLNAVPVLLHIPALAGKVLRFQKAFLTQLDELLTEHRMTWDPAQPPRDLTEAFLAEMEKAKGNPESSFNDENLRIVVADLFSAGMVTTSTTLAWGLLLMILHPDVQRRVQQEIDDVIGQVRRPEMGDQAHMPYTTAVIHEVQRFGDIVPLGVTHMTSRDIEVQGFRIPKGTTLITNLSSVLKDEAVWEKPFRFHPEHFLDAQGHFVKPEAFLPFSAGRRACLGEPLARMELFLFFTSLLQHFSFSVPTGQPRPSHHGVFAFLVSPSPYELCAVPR

- Ki (Histamine H3 receptor [10]): 2.5 nM
Compound: CC(C)N1CCC(Oc2ccc(C(=O)NC3CCN(C4CCC4)C3)cc2)CC1 (racemic)

- Ki (Histamine H3 receptor [10]): 1 nM
Compound: CC(C)CN1CCC(NC(=O)c2ccc(OC3CCN(C(C)C)CC3)cc2)C1 (racemic)

- Ki (Histamine H3 receptor [10]): 11.4 nM
Compound: CC(C)N1CCC(NC(=O)c2ccc(OC3CCN(C(C)C)CC3)cc2F)CC1

- Cmax [1]: 122 ng/mL
- Ki (Histamine H3 receptor [2]): 0.9 nM
- IC50 (Histamine H3 receptor [3]): 324 nM
- IC50 (Cytochrome P450 3A4): > 45000 nM
- IC50 (Cytochrome P450 2D6): > 45000 nM
- metabolised at 0.5 h [5]: 12%
- metabolised at 0.5 h [6]: 4%
- AUCt (Rattus norvegicus [7]): 444 ng·h/mL
- F (Rattus norvegicus [8]): 75%
- t1/2 (Rattus norvegicus [9]): 11.67 h
Compound: CC(C)N1CCC(Oc2ccc(C(=O)NC3CCN(C(C)C)C3)cc2)CC1 (stereo not drawn)
- inhibition at 1 µM (hERG (KCNH2) [11]): 21%

- Ki (Histamine H3 receptor [10]): 26.9 nM
Compound: CC(C)N1CCC(NC(=O)c2ccc(OC3CCN(C4CCC4)CC3)cc2)C1 (racemic)

- Ki (Histamine H3 receptor [10]): 1.2 nM
Compound: CC(C)N1CCC(Oc2ccc3c(c2)CCN(C2CCN(C4CCC4)C2)C3=O)CC1 (racemic)

- Ki (Histamine H3 receptor [10]): 0.8 nM
- Cmax [12]: 80 ng/mL
- Ki (Histamine H3 receptor [2]): 0.03 nM
- IC50 (Histamine H3 receptor [3]): 4.8 nM
- metabolised at 0.5 h [5]: 10%
- metabolised at 0.5 h [6]: 6%
- AUCt (Rattus norvegicus [13]): 1429 ng·h/mL
- F (Rattus norvegicus [14]): 27%
- Vz (Rattus norvegicus [15]): 13 L/kg
- concentration at 1 h [16]: 28.5 ng/g
- concentration at 1 h [17]: 175 ng/g
- concentration at 1 h [18]: 765 ng/g
- concentration at 1 h [19]: 3.7 ng/mL
- concentration at 1 h [20]: 15.7 ng/mL
- concentration at 1 h [21]: 76.3 ng/mL
- Kp [22]: 0.54
Compound: O=C1c2ccc(OC3CCN(C4CCC4)CC3)cc2CCN1C1CCN(C2CCC2)CC1
- inhibition at 1 µM (hERG (KCNH2) [11]): 23%
- inhibition at 10 µM (hERG (KCNH2) [4]): 26%
- Activity (Rattus norvegicus [23]): Dose-dependent effect
- ED50 (Rattus norvegicus [23]): 15.5 mg/kg

- Ki (Histamine H3 receptor [10]): 5.7 nM
Compound: CC(C)N1CCC(Oc2ccc(C(=O)NC3CCN(C4CCC4)C3)c(F)c2)CC1 (racemic)

- Ki (Histamine H3 receptor [10]): 18.4 nM
Compound: CC(C)N1CCC(Oc2ccc(C(=O)NC3CCN(C4CCC4)C3)c(Cl)c2)CC1 (racemic)

- Ki (Histamine H3 receptor [10]): 10.5 nM
Compound: CC(C)N1CCC(Oc2ccc(C(=O)NC3CCN(C4CCC4)CC3)c(F)c2)CC1

- Ki (Histamine H3 receptor [10]): 384 nM
Compound: Cc1cc(C(=O)NC2CCN(C3CCC3)C2)ccc1OC1CCN(C(C)C)CC1 (racemic)

Continued, compound first:

Compound: CC(C)CN1CCC(NC(=O)c2ccc(OC3CCN(C(C)C)CC3)cc2)C1 (stereo not drawn)
- Cmax [1]: 18 ng/mL
- Ki (Histamine H3 receptor [2]): 1.2 nM
- IC50 (Histamine H3 receptor [3]): 459 nM
- inhibition at 10 µM (hERG (KCNH2) [4]): 35%
- metabolised at 0.5 h [5]: 18%
- metabolised at 0.5 h [6]: 8%
- AUCt (Rattus norvegicus [7]): 281 ng·h/mL
- F (Rattus norvegicus [8]): 81%
- t1/2 (Rattus norvegicus [9]): 17.51 h

Compound: CC(C)N1CCC(NC(=O)c2ccc(OC3CCN(C4CCC4)CC3)cc2Cl)CC1
- Ki (Histamine H3 receptor [10]): 7 nM

Compound: CC(C)N1CCC(Oc2ccc(C(=O)NC3CCN(C4CCC4)C3)cc2F)CC1 (racemic)
- Ki (Histamine H3 receptor [10]): 7.3 nM

Compound: CC(C)N1CCC(Oc2ccc(C(=O)NC3CCN(C(C)C)C3)cc2)CC1 (racemic)
- Ki (Histamine H3 receptor [10]): 5.7 nM

Compound: CC(C)N1CCC(Oc2ccc3c(c2)CCN(C2CCN(C4CCC4)CC2)C3=O)CC1
- Ki (Histamine H3 receptor [10]): 1.8 nM

Compound: CC(C)N1CCC(Oc2ccc3c(c2)CCN(C2CCN(C(C)C)C2)C3=O)CC1 (stereo not drawn)
- Ki (Histamine H3 receptor [2]): 0.1 nM
- IC50 (Histamine H3 receptor [3]): 14.3 nM

Compound: Cc1cc(C(=O)NC2CCN(C(C)C)C2)ccc1OC1CCN(C(C)C)CC1 (racemic)
- Ki (Histamine H3 receptor [10]): 1360 nM

Compound: CC(C)N1CCC(NC(=O)c2ccc(OC3CCOCC3)cc2)C1 (racemic)
- Ki (Histamine H3 receptor [10]): 103 nM

Compound: CC(C)N1CCC(NC(=O)c2ccc(OC3CCN(C4CCC4)CC3)cc2)CC1
- Ki (Histamine H3 receptor [10]): 1.6 nM

Compound: CC(C)N1CCC(Oc2ccc3c(c2)CCN(C2CCN(C(C)C)C2)C3=O)CC1 (racemic)
- Ki (Histamine H3 receptor [10]): 2.1 nM

Compound: CC(C)N1CCC(NC(=O)c2ccc(OC3CCN(C4CCCC4)CC3)cc2)C1 (racemic)
- Ki (Histamine H3 receptor [10]): 8.6 nM

Compound: CC(C)N1CCC(NC(=O)c2ccc(OC3CCN(C4CCCC4)CC3)cc2)C1 (stereo not drawn)
- Ki (Histamine H3 receptor [2]): 1 nM
- IC50 (Histamine H3 receptor [3]): 274 nM

Compound: O=C1CCCN1c1ccc(Oc2ccc3c(c2)CCN(C2CCC2)CC3)nc1 [GSK239512]
- Ki (Histamine H3 receptor [2]): 10 nM

Compound: CC(C)N1CCC(NC(=O)c2ccc(OC3CCN(C4CCC4)CC3)cc2)C1 (stereo not drawn)
- IC50 (Cytochrome P450 3A4): > 30000 nM
- IC50 (Cytochrome P450 2D6): > 30000 nM

Compound: CC(C)N1CCC(NC(=O)c2ccc(OC3CCN(C(C)C)CC3)cc2)CC1
- Ki (Histamine H3 receptor [10]): 8.3 nM

Compound: O=C(NC1CCN(C2CCC2)CC1)c1ccc(OC2CCN(C3CCC3)CC2)cc1Cl
- Ki (Histamine H3 receptor [10]): 6.7 nM

Compound: Cc1cc(OC2CCN(C(C)C)CC2)ccc1C(=O)NC1CCN(C2CCC2)C1 (racemic)
- Ki (Histamine H3 receptor [10]): 9.2 nM
